Reference: ChEMBL document CHEMBL1201862, “PubChem BioAssay data set” (2004)
Calls of active or inactive are those of the source.

How the values were obtained:
[1] = molecular target: T1, Histone-lysine N-methyltransferase NSD2 (Homo sapiens, UniProt O96028); assay type: biochemical
T1 sequence (O96028 whole entry): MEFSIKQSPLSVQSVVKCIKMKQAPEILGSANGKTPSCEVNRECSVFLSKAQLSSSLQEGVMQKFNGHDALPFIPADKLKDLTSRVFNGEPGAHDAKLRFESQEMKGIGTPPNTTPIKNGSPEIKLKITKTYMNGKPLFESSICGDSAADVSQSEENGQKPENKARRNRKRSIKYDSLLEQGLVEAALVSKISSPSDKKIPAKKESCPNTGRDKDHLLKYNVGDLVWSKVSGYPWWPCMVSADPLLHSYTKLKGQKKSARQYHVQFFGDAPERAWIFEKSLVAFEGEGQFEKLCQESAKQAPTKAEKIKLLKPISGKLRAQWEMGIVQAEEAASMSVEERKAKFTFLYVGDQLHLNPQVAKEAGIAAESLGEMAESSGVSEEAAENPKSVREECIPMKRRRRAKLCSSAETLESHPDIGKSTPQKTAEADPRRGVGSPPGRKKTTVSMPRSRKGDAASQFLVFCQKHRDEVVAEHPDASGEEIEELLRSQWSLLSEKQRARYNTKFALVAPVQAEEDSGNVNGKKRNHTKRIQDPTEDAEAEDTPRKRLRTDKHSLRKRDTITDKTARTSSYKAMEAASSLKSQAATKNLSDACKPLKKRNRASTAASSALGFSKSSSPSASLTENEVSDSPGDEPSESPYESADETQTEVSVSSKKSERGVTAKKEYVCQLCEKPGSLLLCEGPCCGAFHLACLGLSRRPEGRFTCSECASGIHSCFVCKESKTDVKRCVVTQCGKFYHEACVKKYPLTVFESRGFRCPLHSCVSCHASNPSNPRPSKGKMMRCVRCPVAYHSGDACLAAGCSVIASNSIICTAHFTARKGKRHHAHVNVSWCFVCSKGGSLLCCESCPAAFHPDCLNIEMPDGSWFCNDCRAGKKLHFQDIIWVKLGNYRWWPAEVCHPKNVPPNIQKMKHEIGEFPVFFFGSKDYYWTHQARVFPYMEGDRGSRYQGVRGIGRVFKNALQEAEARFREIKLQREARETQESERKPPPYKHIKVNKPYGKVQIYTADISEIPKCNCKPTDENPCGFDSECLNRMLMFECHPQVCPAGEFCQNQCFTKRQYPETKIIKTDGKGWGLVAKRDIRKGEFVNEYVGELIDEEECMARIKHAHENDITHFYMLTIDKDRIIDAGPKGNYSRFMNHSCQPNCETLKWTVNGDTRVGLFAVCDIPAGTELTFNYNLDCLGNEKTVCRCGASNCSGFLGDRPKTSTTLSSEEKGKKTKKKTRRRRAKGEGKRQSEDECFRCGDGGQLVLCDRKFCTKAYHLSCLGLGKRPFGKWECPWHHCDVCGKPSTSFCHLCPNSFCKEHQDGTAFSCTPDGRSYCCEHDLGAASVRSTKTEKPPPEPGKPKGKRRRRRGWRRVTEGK

[2] = molecular target: T2, Apoptotic protease-activating factor 1 (Homo sapiens, UniProt O14727); assay type: functional
T2 sequence (O14727 whole entry): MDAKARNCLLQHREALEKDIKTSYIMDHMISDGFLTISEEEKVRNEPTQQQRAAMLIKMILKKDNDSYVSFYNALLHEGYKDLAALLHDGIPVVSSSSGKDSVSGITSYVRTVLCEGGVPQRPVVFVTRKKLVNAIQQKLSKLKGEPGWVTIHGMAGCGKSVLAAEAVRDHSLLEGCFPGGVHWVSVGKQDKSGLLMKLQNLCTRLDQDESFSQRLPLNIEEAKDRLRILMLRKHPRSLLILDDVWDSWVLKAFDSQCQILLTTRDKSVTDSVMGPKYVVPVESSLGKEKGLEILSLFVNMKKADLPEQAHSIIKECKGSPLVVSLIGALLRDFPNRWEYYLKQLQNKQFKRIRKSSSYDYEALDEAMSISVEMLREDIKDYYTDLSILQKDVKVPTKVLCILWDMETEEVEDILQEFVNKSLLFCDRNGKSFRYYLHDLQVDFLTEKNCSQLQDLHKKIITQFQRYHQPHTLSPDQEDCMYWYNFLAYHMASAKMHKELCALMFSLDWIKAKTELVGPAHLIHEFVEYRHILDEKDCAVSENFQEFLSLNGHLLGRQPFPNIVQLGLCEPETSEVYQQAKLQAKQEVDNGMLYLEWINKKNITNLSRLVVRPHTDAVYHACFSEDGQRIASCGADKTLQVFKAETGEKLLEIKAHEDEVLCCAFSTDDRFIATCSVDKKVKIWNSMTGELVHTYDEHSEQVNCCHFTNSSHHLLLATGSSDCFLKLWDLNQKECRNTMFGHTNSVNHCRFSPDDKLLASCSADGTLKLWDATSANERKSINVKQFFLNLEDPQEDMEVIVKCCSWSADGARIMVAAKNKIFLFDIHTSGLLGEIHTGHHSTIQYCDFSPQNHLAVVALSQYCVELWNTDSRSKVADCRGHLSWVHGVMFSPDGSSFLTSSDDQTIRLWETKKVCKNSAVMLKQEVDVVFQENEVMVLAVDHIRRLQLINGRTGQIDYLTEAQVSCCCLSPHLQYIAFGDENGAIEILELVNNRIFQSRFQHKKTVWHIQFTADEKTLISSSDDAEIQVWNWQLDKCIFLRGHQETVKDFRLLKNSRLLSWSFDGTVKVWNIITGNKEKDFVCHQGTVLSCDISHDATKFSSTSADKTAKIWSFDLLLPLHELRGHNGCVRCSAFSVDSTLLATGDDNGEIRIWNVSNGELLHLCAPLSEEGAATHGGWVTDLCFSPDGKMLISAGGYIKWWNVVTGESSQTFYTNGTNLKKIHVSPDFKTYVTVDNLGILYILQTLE

Vero = assay: viability of Vero cells under compound – cytotoxicity control for flavivirus capping enzyme inhibitors (AID 588742); assay type: functional; details: Chlorocebus sabaeus
Genome polyprotein = Genome polyprotein (dengue virus type 2, UniProt P29990); assay: flavivirus cap methylation enzyme inhibition – biochemical, confirmation dose response, primary screen (AID 588689); assay type: functional
A-375 = assay: MITF: Counter assay: A375 proliferation Measured in Cell-Based System Using Plate Reader - 2084-03_Inhibitor_Dose_DryPowder_Activity. [Related pubchem assays (depositor defined):AID488944]; assay type: functional; details: Homo sapiens
[3] = molecular target: T3, Sentrin-specific protease 8 (Homo sapiens, UniProt Q96LD8); assay type: functional
T3 sequence (Q96LD8 whole entry): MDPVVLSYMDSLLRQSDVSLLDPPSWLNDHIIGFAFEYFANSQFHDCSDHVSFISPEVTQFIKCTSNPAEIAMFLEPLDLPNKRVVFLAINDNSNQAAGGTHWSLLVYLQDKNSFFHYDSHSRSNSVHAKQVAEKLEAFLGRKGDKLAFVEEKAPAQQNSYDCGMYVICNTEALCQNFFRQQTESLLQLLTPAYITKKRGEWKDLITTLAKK

[4] = molecular target: T3, Sentrin-specific protease 8; assay type: functional; remark: listed apart in the source

Chain of Genome polyprotein (P29990 2492-3391 limits assumed): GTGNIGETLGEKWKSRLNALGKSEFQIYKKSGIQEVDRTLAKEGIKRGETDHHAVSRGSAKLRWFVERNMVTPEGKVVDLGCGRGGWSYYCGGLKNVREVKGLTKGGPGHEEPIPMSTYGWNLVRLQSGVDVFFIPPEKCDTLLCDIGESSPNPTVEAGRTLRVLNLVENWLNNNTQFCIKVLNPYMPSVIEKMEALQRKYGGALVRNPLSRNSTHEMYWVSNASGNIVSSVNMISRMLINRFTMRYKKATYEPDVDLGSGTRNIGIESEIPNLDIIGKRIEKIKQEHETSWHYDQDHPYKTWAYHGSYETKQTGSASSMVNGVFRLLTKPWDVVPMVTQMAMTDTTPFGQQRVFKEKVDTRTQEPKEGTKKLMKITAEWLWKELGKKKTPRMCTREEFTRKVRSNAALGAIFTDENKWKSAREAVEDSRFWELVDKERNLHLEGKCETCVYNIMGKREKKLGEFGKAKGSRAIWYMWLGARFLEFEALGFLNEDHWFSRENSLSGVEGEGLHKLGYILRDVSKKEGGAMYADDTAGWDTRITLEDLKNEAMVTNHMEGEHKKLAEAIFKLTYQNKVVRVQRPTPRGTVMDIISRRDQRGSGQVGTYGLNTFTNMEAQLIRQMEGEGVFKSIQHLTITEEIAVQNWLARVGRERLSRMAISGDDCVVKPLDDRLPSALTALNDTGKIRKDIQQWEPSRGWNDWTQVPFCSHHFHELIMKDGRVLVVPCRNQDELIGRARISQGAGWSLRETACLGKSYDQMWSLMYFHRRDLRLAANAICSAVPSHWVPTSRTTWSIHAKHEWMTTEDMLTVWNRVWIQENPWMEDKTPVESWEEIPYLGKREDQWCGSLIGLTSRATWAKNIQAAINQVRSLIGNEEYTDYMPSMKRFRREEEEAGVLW

CC(C)=CCC1=C(OCC(=O)O)C(=O)c2ccccc2C1=O
active: AC50 [1] 3.99 µM | IC50 [2] 6.11 µM

Cc1cccc(NC2=C(NC(=O)c3ccccc3)C(=O)c3ccccc3C2=O)c1
active: CC50 (Vero) > 40 µM | IC50 (Genome polyprotein) 58.4 µM | IC50 [2] 13.4 µM | AC50 (A-375) 34 µM

Cc1[nH][nH]c(=O)c1C(c1c(C)[nH][nH]c1=O)c1cn(Cc2ccccc2Cl)c2ccccc12
active: AC50 [1] 17.8 µM | IC50 [3] 4.89 µM | IC50 [4] 4.8 µM
